Measured values: ChEMBL document CHEMBL1152614, “Design, synthesis and evaluation of monovalent ligands for the asialoglycoprotein receptor (ASGP-R)” (Bioorg Med Chem, 2009)

How the values were obtained:
[1] = molecular target: T1, Asialoglycoprotein receptor 1 (Homo sapiens) (UniProt P07306); assay: Inhibition of D-GalNAc-PAA binding to human recombinant ASGPR1 carbohydrate recognition domain expressed in Escherichia coli AD494 by competitive solid-phase binding assay relative to D-GalNAc
T1 sequence (whole entry): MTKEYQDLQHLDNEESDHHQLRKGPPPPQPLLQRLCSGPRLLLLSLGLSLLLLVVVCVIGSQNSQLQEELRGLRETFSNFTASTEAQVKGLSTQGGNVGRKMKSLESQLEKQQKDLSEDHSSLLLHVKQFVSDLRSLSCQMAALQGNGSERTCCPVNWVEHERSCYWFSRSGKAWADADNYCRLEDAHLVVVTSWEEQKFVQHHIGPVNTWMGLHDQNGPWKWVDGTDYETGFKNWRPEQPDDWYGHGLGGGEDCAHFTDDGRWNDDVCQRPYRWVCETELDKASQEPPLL

[2] = Inhibition of [125I]asialoorosomucoid binding to rabbit hepatic ASGPR1; design: species or system Oryctolagus cuniculus
[3] = molecular target: T1, Asialoglycoprotein receptor 1 (Homo sapiens); assay: Inhibition of D-GalNAc binding to human recombinant ASGPR1 carbohydrate recognition domain expressed in Escherichia coli AD494 by competitive NMR binding assay relative to D-GalNAc

Row | Ratio IC50 [1] | IC50 [2] [mM] | relative binding affinity (RBA) [3] | SMILES
1 | Insoluble |  |  | O=S(=O)(Nc1ccc(OCc2cn([C@H]3CO[C@H](CO)[C@H](O)[C@@H]3O)nn2)cc1)C(F)(F)F
2 |  | 1.7 |  | OC[C@H]1O[C@@H](O)[C@H](O)[C@@H](O)[C@H]1O [b-D-GALACTOSE]
3 | 1 |  |  | CC(=O)N[C@H]1C(O)O[C@H](CO)[C@H](O)[C@@H]1O (some centres not stated)
4 | 0.8 |  |  | O=[N+]([O-])c1ccc(OCc2cn([C@H]3CO[C@H](CO)[C@H](O)[C@@H]3O)nn2)cc1
5 | 8.7 |  |  | O=C(O)c1ccc(OCc2cn([C@H]3CO[C@H](CO)[C@H](O)[C@@H]3O)nn2)cc1
6 | 1.4 |  |  | OC[C@H]1OC[C@H](n2cc(COc3c(F)c(F)c(F)c(F)c3F)nn2)[C@@H](O)[C@H]1O
7 | 0.9 |  |  | CN1CCN(c2ccc(OCc3cn([C@H]4CO[C@H](CO)[C@H](O)[C@@H]4O)nn3)cc2)CC1
8 |  | 60 |  | OC[C@H]1O[C@@H](O)[C@H](O)[C@@H](O)[C@@H]1O [beta-D-Glucose]
9 | 1.1 |  |  | OC[C@H]1OC[C@H](n2cc(COc3ccccc3)nn2)[C@@H](O)[C@H]1O
10 | 0.5 |  | 1.9 | N#Cc1ccc(OCc2cn([C@H]3CO[C@H](CO)[C@H](O)[C@@H]3O)nn2)cc1

Row | SMILES | Ratio IC50 [1] | IC50 [2] [mM] | relative binding affinity (RBA) [3]
11 | [N-]=[N+]=N[C@H]1CO[C@H](CO)[C@H](O)[C@@H]1O | 13.7 |  | 
